Source: patent publication US4032534A, “Certain 2-(2-thioethyl)thiazolidine-4-carboxylic acids” (Ferlus-Chimie S.A., priority 1973, dated 1977)

How the values were obtained:
in vivo = details: mouse, po
[1] = test system: phenylbenzoquinone-induced stretching or twisting movements (writhing syndrome); assay: Siegmund test (analgesic action; phenylbenzoquinone writhing syndrome); assay type: in vivo; details: mouse, 300 mg/kg PO, 30 minutes before phenylbenzoquinone, protected = less than five stretching movements in 5 minutes
Method: Reference: […], E. A.: CADMUS, R. A.: GOLU: "A Method for evaluating both non-narcotic and narcotic Analgesics." Pro. Soc. Exp. Biol., 1957, b, 95, 729-731.
Principle: Injection of an irritant, phenylbenzoquinone (in 0.02% solution), into the peritoneum of a mouse, determination of the stretching or twisting movements (writhing syndrome), whose frequency is diminished by the preventive administration of analgesic.
The substances were given orally 30 minutes before injection of the irritant. The number of stretching movements between the 5th and 10th minute after injection of phenylbenzoquinone were counted. The percentage of animals protected was calculated. A mouse was considered protected if it executed less than five stretching movements in 5 minutes.

[2] = test system: femoral arterial pressure and cardiac contractile force; assay: Cardiovascular action in a dog anaesthetised with chloralose; assay type: in vivo
Method: This action was studied in a dog, anaesthetised with chloralose, its reflexogenic, cardioaortic and sinocarotidian zones being intact (normotense dog), or denervated (hypertense dog). The product to be tested was injected in the saphena vein, and the femoral arterial pressure and cardiac contractile force were recorded.

mouse = details: for DL 50: per os, species not given
[3] = Mucolytic action: measurement of the fluidising action of the bronchial secretion (microviscosimeter of the BROOKFIELD type); details: for Percentage diminution of viscosity: 37° C.
Method: Mucolytic action: measurement of the fluidising action of the bronchial secretion.
The study of the viscosity of an expectoration is effected in vitro. In order to measure viscosity, a microviscosimeter of the BROOKFIELD type is used. With the aid of this apparatus, the resistant couple exerted on a rotor is determined. This rotor, submerged in the liquid whose viscosity is to be measured, rotates at a known constant speed.
1.5 ml of secretion, taken to ambient temperature, was poured into a container of the viscosimeter. After 4 minutes, the temperature of the expectoration was balanced at 37° C., then the motor of the apparatus was started for 5 minutes, after which measurement was effected.
Three rotor speeds were used:
1.5 r.p.m.; 3 r.p.m., and 6 r.p.m.
The three speeds were used for each test. Firstly, the viscosity of the pure expectoration was measured, then that of the expectoration to which had been added one drop of distilled water as a solvent, and whose retained values were later used as witness values, or placebo values.
Thereafter, 1.5 ml of secretion had added to it a drop of the product at the first aqueous concentration envisaged.
The viscosity was measured at the three rotary speeds of the rotor. The same operation was repeated at the following concentrations; 1 mg/ml; 2 mg/ml and 5 mg/ml.
The reference substance was mercapto-ethane sulfonate of sodium or MISTABRON (M.E.S. Na). This substance had been studied under the same experimental conditions at a concentration of 200 mg/ml.

For O=C(O)CSCCC1NC(C(=O)O)CS1 (stereo not shown) [Compound No. 4, 4-carboxy-thiazolidinyl-2-ethyl mercapto acetic acid], which LD50 (in vivo) is on record?
The LD50 was > 1200 mg/kg.

And the “% of animals protected” value ([1]; 300 mg/kg)?
The value was 40%.

Which results are given for O=C(O)CSCCC1NC(C(=O)O)CS1 (stereo not shown) [Compound No. 5, 4-carboxy thiazolidinyl 2-ethyl mercapto acetate of di(diisopropylamine)]?
% of animals protected ([1]; 300 mg/kg): 20%; antihypertensive and hypotensive action (in words) ([2]; intravenous, 10 mg/kg): antihypertensive and hypotensive; Acute Toxicity mouse PO (mouse): > 1200 mg/kg; DL 50 (mouse): > 1200 mg/kg

With CCOC(=O)CSCCC1NC(C(=O)O)CS1 (stereo not shown) [Compound No. 8, 2-[(Ethoxycarbonylmethylthio)-ethyl] thiazolidine 4-carboxylate of diisopropylamine] as the molecule, how does the “Percentage diminution of viscosity” value ([3]; 1 mg/ml, rotor speed V = 1.5 r.p.m.) read?
Its value is 58%.

And the “Percentage diminution of viscosity” value ([3]; 1 mg/ml, rotor speed V = 3 r.p.m.)?
Its value is 55%.

What about the “Percentage diminution of viscosity” value ([3]; 1 mg/ml, rotor speed V = 6 r.p.m.) of the same molecule?
Its value is 46%.

And the “Percentage diminution of viscosity” value ([3]; 2 mg/ml, rotor speed V = 1.5 r.p.m.)?
The value was 60%.

And the “Percentage diminution of viscosity” value ([3]; 2 mg/ml, rotor speed V = 3 r.p.m.)?
The value was 57%.

And the “Percentage diminution of viscosity” value ([3]; 2 mg/ml, rotor speed V = 6 r.p.m.)?
Its value is 47.5%.

What about the “Percentage diminution of viscosity” value ([3]; 5 mg/ml, rotor speed V = 1.5 r.p.m.) of the same molecule?
Its value is 71%.

And the “Percentage diminution of viscosity” value ([3]; 5 mg/ml, rotor speed V = 3 r.p.m.)?
The value was 62%.

What about the “Percentage diminution of viscosity” value ([3]; 5 mg/ml, rotor speed V = 6 r.p.m.) of the same molecule?
The value was 58%.

What about the “mucolytic action versus reference M.E.S. Na (in words)” value ([3]; in accordance with the doses used (1, 2, 5 mg/ml vs 200 mg/ml M.E.S. Na)) of the same molecule?
Its value is “comparable with and even superior to the reference substance”.

Which “cardiostimulant properties (in words)” value ([2]; saphena vein injection, 20 mg/kg) does the source give for O=C(O)C1CSC(CCSCc2nc3ccccc3[nH]2)N1 (stereo not shown) [Compound No. 10, 2-[2-(benzimidazolylmethyl)-2-thioethyl]-thiazolidine 4-carboxylic acid] here?
The value was “clear cardiostimulant properties”.

And the “DL 50” value (mouse)?
Its value is > 1200 mg/kg.

For O=S(=O)(O)CCS [M.E.S. Na, mercapto-ethane sulfonate of sodium, reference compound], which “Percentage diminution of viscosity” value ([3]; 200 mg/ml, rotor speed V = 1.5 r.p.m.) is on record?
The value was 66%.

And the “Percentage diminution of viscosity” value ([3]; 200 mg/ml, rotor speed V = 3 r.p.m.)?
The value was 65%.

And the “Percentage diminution of viscosity” value ([3]; 200 mg/ml, rotor speed V = 6 r.p.m.)?
Its value is 55%.

Which “% of animals protected” value ([1]; acetate, 300 mg/kg) does the source give for O=C(O)CSCCC1NC(C(=O)O)CS1 (stereo not shown) [compound 6, 4-carboxy thiazolidinyl 2-ethyl mercapto arginine acetate] here?
Its value is 20%.

What about the “Acute Toxicity mouse PO” value (mouse) of the same molecule?
Its value is > 1200 mg/kg.

What does the source list for O=C(O)C1CSC(CCSc2nc3ncccc3o2)N1 (stereo not shown) [compound 11, 2-(2-pyridoxazolyl-2-thioethyl)thiazolidine 4-carboxylic acid]?
LD50 (in vivo): > 1200 mg/kg; % of animals protected [1]: 20%
